The subject of series [1] is glioblastoma U-87 MG cells transduced with HSV1-TK (human Herpes simplex virus type 1 thymidine kinase). Briefly: Cell proliferation (XTT), sensitivity to AZT. The class given is cell-based. The settings on record: 120 h, 5 days of drug exposure. The protocol: (§1) Each experiment was performed in four replicates.
In general terms: Tetrazolium dyes change colour on reduction, which living cells bring about.

The test system of series [2] is Glioblastoma U-87 MG. Briefly: Cell proliferation assay (XTT), sensitivity to AZT of transduced cells. The settings on record: Homo sapiens, parental U-87 MG, construct None. The class given is cell-based. The protocol: 293T packaging cells (ATTC CRL-11268) were cultured at 37° C. in OPTIMEM 1 medium (Life Technologies, Inc.). The constructed pLCXSN plasmid vector was transfected into the packaging cells using LipofectAMINE PLUS (Life Technology Inc.) according to the protocol provided by the supplier. The medium from the transfected cells was collected 48 hours after transfection, filtered through a […] filter, pelleted by ultracentrifugation (50,000×g, 90 minutes at 4° C.) and dissolved in TEN buffer (100 mM NaCl, 10 mM Tris pH 7.5, 1 mM EDTA).
The virus-containing buffer was subsequently used to transduce the cancer cell lines with MOI of 5.
as §1

Series [3] addresses rHSV1-TK, human Herpes simplex virus type 1 thymidine kinase (Human alphaherpesvirus 1 strain 17, UniProt P0DTH5). The series can be described thus: Kinetic constants of purified recombinant thymidine kinase (rHSV1-TK). The class given is biochemical. Conditions: substrate AZT. The protocol: (§2) Transformed KY895 were grown to an OD600 nm of 0.5-06 in LB/Ampicillin (100 μg/ml) medium at 37° C. and protein expression was induced by addition of IPTG to make 100 μM. The cells were further grown for 4 h at 25° C. and subsequently harvested by centrifugation.

Series [4] deals with T1, rAT-ΔN45TK1b, Arabidopsis thaliana thymidine kinase AT-TK1b (SEQ ID NO: 13) with N-terminal deletion of 45 amino acids (Arabidopsis thaliana, UniProt F4KBF5).
T1 sequence (F4KBF5 51-282): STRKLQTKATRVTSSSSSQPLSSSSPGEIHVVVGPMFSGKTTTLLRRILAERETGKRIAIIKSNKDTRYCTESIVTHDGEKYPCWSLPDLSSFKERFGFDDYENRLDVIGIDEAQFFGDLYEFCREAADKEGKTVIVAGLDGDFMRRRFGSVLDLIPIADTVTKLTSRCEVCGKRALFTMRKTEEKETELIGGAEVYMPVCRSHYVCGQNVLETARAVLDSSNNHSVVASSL
Briefly: Kinetic constants of purified recombinant thymidine kinase (rAT-ΔN45TK1b). The class given is biochemical, thale cress (Arabidopsis thaliana). The settings on record: substrate AZT. The protocol:
An N-terminal deletion of 45 amino acids was achieved by using the primers
The resulting plasmid was named pGEX-2T-AT-ΔN45TK1b (P663).
as §2

For series [5], the target named is T2, rAT-TK1a, Arabidopsis thaliana thymidine kinase AT-TK1a, recombinant wild type, SEQ ID NO: 9 (Arabidopsis thaliana, UniProt Q9S750). The series can be described thus: Kinetic constants of purified recombinant thymidine kinase (rAT-TK1a). In kind it is biochemical, thale cress (Arabidopsis thaliana). Conditions: substrate AZT. The protocol:
as §2

Series [6] concerns glioblastoma U-87 MG cells transduced with PZG69: TomTK1 (tomato TK1, SEQ ID NO: 4). Briefly: cells. The settings on record: Homo sapiens, 120 h, 5 days of drug exposure. The protocol: (§3) Arabidopsis constructs based on AT-TK1a were cut with BamHI/XhoI, and tomato PCR fragments were cut with BglII/XhoI, and cloned into the BglII-XhoI site of plasmid vector pLCXSN, which is a retroviral transfer vector derived from pLXSN (Clontech, cat# K1060-B) by insertion of the CMV promoter upstream of the polylinker.
as §1

In series [7] the test system is glioblastoma U-87 MG cells transduced with PZG53: AtTK1 (AT-TK1a, Arabidopsis thaliana, SEQ ID NO: 9). Briefly: Cell proliferation (XTT), sensitivity to AZT. In kind it is cell-based. Conditions: Homo sapiens, 120 h, 5 days of drug exposure. The protocol: as §3, §1
Series [8] is described as follows: Cell proliferation (XTT), sensitivity to AZT. The class given is cell-based. Conditions: Homo sapiens, U-87 MG, 120 h, 5 days of drug exposure. The protocol: as §3, §1
Series [9] has as its target rTOM-TK1, tomato (Lycopersicum esculentum) thymidine kinase, recombinant wild type, SEQ ID NO: 4 (Solanum lycopersicum, UniProt Q71F77). In kind it is biochemical. Conditions: substrate AZT. The protocol:
as §2

The subject of series [10] is glioblastoma U-87 MG cells transduced with pLCXSN (retroviral vector alone). Briefly: cells. Conditions: Homo sapiens, 120 h, 5 days of drug exposure.
The target in series [11] is T2, rAT-TK1a, Arabidopsis thaliana thymidine kinase AT-TK1a, recombinant wild type, SEQ ID NO: 9. Conditions: substrate Thd, data from Le Breton C, B. Sc. Report 2002, cited from earlier work.
In series [12] the target is T1, rAT-ΔN45TK1b, Arabidopsis thaliana thymidine kinase AT-TK1b (SEQ ID NO: 13) with N-terminal deletion of 45 amino acids. Conditions: substrate Thd; data from Le Breton C, B. Sc. Report 2002; cited from earlier work.
Series [13] can be described thus: AZT monophosphate kinase activity. The class given is biochemical. Conditions: 30 mU enzyme, 100 μM 3H-labelled substrate. The protocol: (§4) 5 μl, of this mixture were plated on polyethylenimine-cellulose plates, which were developed ascending in 0.5 M […]. The spots with the nucleosides and nucleotides were identified under UV light and cut out.
The radioactivity in the spots was extracted with 0.2 M KCl in 0.1 M HCl, and determined by liquid scintillation counting. 1 pmol radioactive nucleoside/tide counts 850 cpm. […]

Series [14] is described as follows: dTMP kinase activity (monophosphate to diphosphate). In kind it is biochemical. Conditions: 30 mU enzyme, 100 μM 3H-labelled substrate, 0 to 120 minutes. The protocol:
as §4
The radioactivity in the spots was extracted with 0.2 M KCl in 0.1 M HCl, and determined by liquid scintillation counting. 1 pmol radioactive nucleoside/tide counts 850 cpm.
The cpm obtained at the indicated times (15, 30, 60, 90 and 120 minutes, respectively) are determined in the TDP spots derived from 2.5 μl of the reaction mixture.

The nature of series [15]: Kinetic constants of purified recombinant TK, substrate AZT. Conditions: from Tables 6 and 7.
Setting [16] is: transient polyclonal cell lines.

Where two headings read alike, the source gives them in different places.

Chain of rHSV1-TK, human Herpes simplex virus type 1 thymidine kinase (P0DTH5 whole entry): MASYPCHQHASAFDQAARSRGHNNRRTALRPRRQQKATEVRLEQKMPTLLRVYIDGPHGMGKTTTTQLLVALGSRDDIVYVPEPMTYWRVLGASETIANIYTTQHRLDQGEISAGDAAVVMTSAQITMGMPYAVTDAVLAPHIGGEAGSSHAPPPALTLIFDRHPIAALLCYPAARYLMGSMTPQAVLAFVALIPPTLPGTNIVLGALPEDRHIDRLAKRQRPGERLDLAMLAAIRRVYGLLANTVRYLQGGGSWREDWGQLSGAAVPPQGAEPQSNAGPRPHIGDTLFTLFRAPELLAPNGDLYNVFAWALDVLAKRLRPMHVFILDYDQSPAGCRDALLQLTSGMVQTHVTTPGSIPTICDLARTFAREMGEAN

Consider `Cc1cn([C@H]2C[C@H](N=[N+]=[N-])[C@@H](CO)O2)c(=O)[nH]c1=O` [AZT, 3′-azido-3′-deoxythymidine], for which the concentration for half-maximal inhibition (IC50) in [1] (stable polyclonal cell lines) was 2580 µM; in series [1] (setting [16]), greater than 5000 µM; in series [2] (listed under stable polyclonal cell lines), 2440 µM; in series [2] (listed under transient polyclonal cell lines), 4470 µM; in series [6] (stable polyclonal cell lines), 17 µM; in series [6] (setting [16]) it was 47 µM. Moreover, the IC50 in series [7] (stable polyclonal cell lines) worked out at 71.9 µM; in series [7] (setting [16]) it was 97 µM; in series [8] (stable polyclonal cell lines, cells transduced with PZG56 construct), 132 µM; in series [8] (stable polyclonal cell lines, cells transduced with PZG59 construct), 25.1 µM; in series [8] (transient polyclonal cell lines, cells transduced with PZG56 construct), 303 µM; in series [8] (transient polyclonal cell lines, cells transduced with PZG59 construct), 26 µM. For the same molecule, the IC50 in [10] (stable polyclonal cell lines) is 4070 µM; in [10] (setting [16]), greater than 5000 µM. Also, the Michaelis-Menten constant (Km) is 1.7 µM in [3] (read-out: Km for AZT), 3.55 µM in series [5] and 22.4 µM in series [9]. Also, the “Vmax for AZT” value in [3] is recorded as 4.1 mU/mg; in [4] it was 242 mU/mg; in series [5] it was 244 mU/mg; in series [9] it was 1579 mU/mg. Also, the “kcat for AZT” value in [3] is 0.028 s⁻¹; in series [4], 0.104 s⁻¹; in series [5], 0.106 s⁻¹; in series [9] it was 0.681 s⁻¹.

In the case of `Cc1cn([C@H]2C[C@H](O)[C@@H](CO)O2)c(=O)[nH]c1=O` [Thd, thymidine], the Km in [11] (read-out: Km for Thd) was 85 µM. Also, in series [11], the “Vmax for Thd” value was 452 mU/mg and the “kcat for Thd” value is 0.2 s⁻¹. Further, in series [12], the “Vmax for Thd” value is 165 mU/mg and the “kcat for Thd” value is 0.071 s⁻¹.

For “HSV1-TK: human Herpes simplex virus type 1 thymidine kinase, control; in Table 4 expressed from the pLCXSN vector, in Example 6 purified enzyme”, the “degree of phosphorylation of AZT-monophosphate, lower than the thymidine substrate” value in series [13] is reported as 10 fold. Moreover, in [13] (0 to 120 minutes), the “phosphorylation of AZT-monophosphate” value is on record as “phosphorylates both substrates”. In series [14], the “phosphorylation of TMP to TDP” value is reported as “phosphorylates both substrates”.

B1: rTOM-TK1: purified recombinant tomato (Lycopersicum esculentum) thymidine kinase, SEQ ID NO: 4 (protein, listed as Lycopersicon esculentum)
chain: MAFSSSARNPVDLRNGSKNSFCPVGEIHVIVGPMFAGKTTALLRRVNLESNDGRNVVLIKSSKDARYAVDAVVTHDGTRFPCWSLPDLSSFKQRFGKDAYEKVDVIGIDEAQFFGDLYEFCCNAADFDGKIIVVAGLDGDYLRKSFGSVLDIIPLADTVTKLTARCELCNRRAFFTFRKTNETETELIGGADIYMPVCRQHYVNGQSVNESAKMVLESHKVSNELILESPLVDP
In the case of B1, the “ratio [kcat/Km (Thd)]/[kcat/Km (AZT)]” value in [15] was 1.07.

B2: rAT-TK1a: purified recombinant Arabidopsis thaliana thymidine kinase TK1a, SEQ ID NO: 9 (protein, listed as Arabidopsis thaliana)
chain: MATLKASFLIKTLDSDVTGDFLSDLERRGSGAVHVIMGPMFSGKSTSLLRRIKSEISDGRSVAMLKSSKDTRYAKDSVVTHDGIGFPCWALPDLMSFPEKFGLDAYNKLDVIGIDEAQFFGDLYEFCCKVADDDGKIVIVAGLDGDYLRRSFGAVLDIIPIADSVTKLTARCEVCGHKAFFTLRKNCDTRTELIGGADVYMPVCRKHYITNHIVIKASKKVLEDSDKARAESCVAATI
Regarding B2, the “ratio [kcat/Km (Thd)]/[kcat/Km (AZT)]” value in [15] came to 0.08.

The term IC50 denotes the point on the concentration scale where inhibition reaches its midpoint. The term Km denotes the concentration of substrate that gives half-maximal velocity.

The values above are taken from patent US7928206B2 (priority 2002, dated 2011).
